Source: patent publication US12352767B2, “Method of treating cognitive decline associated with neurological diseases based on a decrease in FLT4 expression or activity” (University of Virginia Patent Foundation, priority 2018, dated 2025)

Legend:
[1] = tested on: brain hippocampus and cortex; test: T1-weighted MRI of brain influx of i.c.m. gadolinium, Lymph4D analysis; format: in vivo, mice
Excerpt: Measurement of gadolinium influx rate and modeling of tracer advection-diffusion within the brain were achieved using Lymph4D, a software developed in-house and available for revision purposes on the following link on the world wide web: viva-lab.ece.virginia.edu/lymph4d. To allow for a direct comparison between the different conditions, the MRI stacks Si(x, y, z, t) of the imaged mice (4 vehicle and 4 Visudyne) were aligned to a Visudyne stack V1(x, y, z, t), chosen as reference. Before proceeding with the automated registration in the (x, y) plane, the stacks were manually aligned along the z (sagittal) direction, to ensure the correspondence between (x, y) (transversal plane) slices, and cropped both in the z and t (time) direction, to ensure that each set of coordinates (x, y, z, t) contained meaningful data. To optimize the slice alignment in the (x, y) plane, scale pyramids (Adelson, E. H., Anderson, C. H., Bergen, J. R., Burt, P. J. & Ogden, J. M. Pyramid methods in image processing. RCA engineer 29, 33-41, (1984).) (3 levels deep) were computed for both the image to be registered and the reference. Starting from the coarser scale, the optimal non-reflective transformation matrix (restricted to translation, rotation, and scaling) was evaluated by using an iterative process based on the steep gradient descent method with a mean square error (MSE) cost function. After reaching algorithm convergence at the largest scale, or the maximum number of allowed iterations, the alignment was refined using progressively finer scales. A linear interpolation mapping was then used to reconstruct the image registered using the optimized transformation matrix. The following alignment strategy was used. Given a stack Si to be aligned to V1, for every slice zj(t)=Si(x, y, zj, t) at a given location in the sagittal direction (z=zj), the optimal transformation matrix was evaluated at every available time (t) and the quality (MSE) of the resulting alignment measured. […] Also, after the alignment, contrast measurement, providing the difference between the maximum and the minimum values observed along the temporal direction during the experiment duration (variability in tracer signal intensity over time), was evaluated for a given (x, y, z) location in the S; stack using: […]
The model was discretized using the forward-time central-space (FTCS) finite difference method (Ferziger, J. H. & Perić, M. Finite Difference Methods. In: Computational Methods for Fluid Dynamics. 3rd edition, 39-69, Springer, Berlin, Heidelberg, (2002).) after the following assumptions. The concentration (x, t) was considered proportional to the measured MRI signal intensity. […]

brain parenchyma = test: Efflux of fluorescent tracers injected into the brain parenchyma; format: in vivo, mice; conditions: 7 days after Visudyne/photoconversion, vs both control groups
Experimental: An incision was made in the skin to expose the skull and a hole was drilled at +1.5 mm in the anterior-posterior axis and −1.5 mm in the medial-lateral axis relative to bregma. Then, using a Hamilton syringe (coupled to a 33-gauge needle) placed at +2.5 mm in the dorsal-ventral axis (relative to bregma), 1 μL of either Alexa Fluor® 647 conjugated OVA (at 0.5 mg/mL), HiLyte™ Fluor 647 conjugated Aβ42 (at 0.05 μg/mL, AnaSpec, Inc.) or BODIPY™ FL conjugated low density lipoprotein (LDL) from human plasma (at 0.1 mg/mL, Thermo Fisher Scientific) in artificial CSF were injected at a rate of 0.2 μL/min into the brain parenchyma. […] After injecting, the syringe was left in place for additional 5 min to prevent back-flow.

meningeal immune cells = test: Flow cytometry of meningeal immune cell populations; format: in vivo; conditions: 5xFAD mice
Experimental: Individual meninges were immediately dissected from the mouse's skull cap and digested 15 min at 37° C. with 1.4 U/ml of Collagenase VIII (Sigma Aldrich) and 35 U/ml of DNAse I (Sigma Aldrich) in complete media consisting of DMEM (Gibco) with 2% FBS (Atlas Biologicals), 1% L-Glutamine (Gibco), 1% penicillin/streptomycin (Gibco), 1% Sodium pyruvate (Gibco), 1% non-essential amino-acid (Gibco) and 1.5% Hepes (Gibco). […] Cell viability was determined by using the Zombie Aqua™ Fixable Viability Kit following the manufacturer's instructions (BioLegend). […] Fluorescence data was collected with a Gallios™ Flow Cytometer (Beckman Coulter, Inc.) then analyzed using FlowJo software (Tree Star, Inc.). […] An aliquot of unstained cells of each sample was counted using Cellometer Auto2000 (Nexcelor) to provide accurate counts for each population. […]

[2] = tested on: intracranial vasculature, blood-brain barrier, brain ventricles; conditions: mouse, in vivo
Experimental: All MRI acquisitions were performed at the University of Virginia Molecular Imaging Core facilities in a 7T Clinscan system (Bruker, Ettlingen, Germany) equipped with a 30 mm diameter cylindrical RF Coil. For analysis of mouse intracranial vascular structure, mice were placed in the 7T Clinscan system under light anaesthesia with isoflurane (1-1.25% in oxygen). Structural imaging data of intracranial arteries (magnetic resonance angiography or MRA) was acquired with a high-resolution 3D isotropic Spiral Cine Phase Contrast (SCPC) technique: repetition time (TR)=15 ms, echo time (TE)=0.63 ms, field of view (FOV)=25×25 mm, slice thickness=0.01 mm, number of sagittal slices=160, number of averages per phase-encode step (NEX)=1 and flip angle (FA)=20°. Total imaging time was of about 15 min per mouse. Structural imaging data of intracranial veins (magnetic resonance venography or MRV) was acquired with a high-resolution 3D isotropic SCPC technique with a saturation band positioned caudal to the slices, in order to saturate the arterial signal: TR=17 ms, TE=4.54 ms, FOV=17×26 mm, slice thickness=0.3 mm, number of sagittal slices=160, NEX=2 and FA=90°. Total imaging time was of about 13 min per mouse. Vascular volume and diameters were quantified using semi-automatic segmentation tools provided in the OsiriX software. For analysis of mouse brain ventricular volume, mice were placed in the 7T Clinscan system under light anaesthesia with isoflurane and structural imaging data were acquired with a high-resolution 3D isotropic T2-weighted SPACE technique with the following parameters: TR=3000 ms, TE=139 ms, FOV=26×20.5 mm, slice thickness=0.13 mm, number of slices=160 and NEX=3, requiring a total acquisition time of about 16 min per mouse. Ventricular volumes were quantified using semi-automatic segmentation tools provided in the OsiriX software.
Initially, a pre-contrast image was acquired after placing the mice in the 7T Clinscan system under light anaesthesia with isoflurane. Gadobenate dimeglumine (gadolinium or Gd, MultiHance, Bracco Diagnostics, Princeton, New Jersey) at 0.3 mmol/kg was then injected intravenously (i.v.), through a catheter inserted in the tail vein. To assess the rate of influx of a CSF tracer into the brain, mice were anaesthetized by i.p. injection of ketamine and xylazine in saline and an i.c.m. injection of 5 μL of Gd at a concentration of 25 mM in saline was performed. […] The mice were placed in the MRI apparatus and maintained under light anaesthesia with isoflurane. For MRI acquisition, maximum gradient strength of the system was 500 mT/m and the peak slew rate achievable was 6667 mT/m/ms. After i.v. injection of Gd or 10 min after injecting gadolinium into the CSF, a series of post-contrast T1-weighted images were taken through the head with the following parameters: TR=500 ms, TE=11 ms, FOV=20×20 mm with a 192×192 matrix (104 μm×104 μm resolution), slice thickness=0.7 mm, number of slices=22 and NEX=2. For i.v. Gd injection 5 post-contrast images were acquired requiring about 16 min per mouse (each sequence taken every 194 s). For brain influx of Gd injected into the CSF, the total acquisition time was of about 52 min per mouse (194 s×16 sequences per mouse), meaning that T1 images were acquired for approximately 1 hour post-injection.

verteporfin [Visudyne]
Gd signal gain in hippocampus and cortex ([1]; 7 days after Visudyne/photoconversion, Gd 25 mM i.c.m., 16 MRI sequences (~52 min), vs vehicle): significantly lower | contrast in Gd signal intensity in the ventricles ([1]; Visudyne-treated mice, over ~52 min): higher contrast in signal intensity | isotropic diffusion coefficient of Gd in the brain ([1]; after meningeal lymphatic ablation with Visudyne, advection-diffusion model in Lymph4D): lower coefficient values | Gd signal intensity gain (relative to sequence 1) in the brain cortex ([1]; one week after Visudyne/photoconversion, Gd 25 mM i.c.m., vs vehicle/photoconversion): significant decrease | levels of remaining tracers in brain parenchyma (Aβ42-HiLyte647, OVA-A647, LDL-BODIPY FL) (brain parenchyma; one hour after stereotaxic injection): higher levels of remnants | Aβ42-HiLyte647 area fraction in the injected brain hemisphere (brain parenchyma): significantly higher level | LDL-BODIPY FL area fraction in the injected brain hemisphere (brain parenchyma): significantly higher level | OVA-A647 area fraction in the injected brain hemisphere (brain parenchyma): significantly higher level | number of macrophages in the meninges (meningeal immune cells; 1.5 months Visudyne/photoconversion vs both control groups): significant increase | neutrophils in the meninges (meningeal immune cells; Visudyne group (no photoconversion) compared to Visudyne/photoconversion group): significant increase | arterial vessel volume [2]: no significant changes between groups | basilar artery diameter [2]: no significant changes between groups | structure of major intracranial veins and arteries [2]: not altered | superior sagittal sinus (SSS) diameter [2]: no significant changes between groups | venous vessel volume [2]: no significant changes between groups
